Experimental data taken from the NIST ThermoML archive (doi:10.1021/acs.jced.5b00246).
Where “and” joins values, the source holds several entries; their conditions need not be identical. Identical values can stand only once.

Settings: 101.33 kPa, Liquid, NMR spin-echo technique

C1COCCO1 [1,4-dioxane]
self diffusion coefficient (288.31 K): 9.1e-10 m2/s | self diffusion coefficient (288.33 K): 8.97e-10 m2/s | self diffusion coefficient (293.11 K): 1.03e-09 m2/s | self diffusion coefficient (298.13 K): 1.1e-09 m2/s | self diffusion coefficient (298.17 K): 1.12e-09 m2/s | self diffusion coefficient (298.18 K): 1.09e-09 m2/s | self diffusion coefficient (298.2 K): 1.13e-09 m2/s | self diffusion coefficient (303.12 K): 1.24e-09 m2/s | self diffusion coefficient (307.92 K): 1.3e-09 m2/s | self diffusion coefficient (308.06 K): 1.32e-09 m2/s | self diffusion coefficient (317.85 K): 1.55e-09 m2/s | self diffusion coefficient (318.24 K): 1.57e-09 m2/s | self diffusion coefficient (327.94 K): 1.79e-09 m2/s | self diffusion coefficient (327.95 K): 1.81e-09 m2/s | self diffusion coefficient (338.09 K): 2.15e-09 m2/s | self diffusion coefficient (338.12 K): 2.09e-09 m2/s | self diffusion coefficient (338.13 K): 2.11e-09 m2/s | self diffusion coefficient (347.87 K): 2.37e-09 m2/s | self diffusion coefficient (347.97 K): 2.43e-09 m2/s | self diffusion coefficient (358.25 K): 2.66e-09 m2/s | self diffusion coefficient (358.49 K): 2.66e-09 m2/s

CC(C)CCCC(C)CCCC(C)CCCCC(C)CCCC(C)CCCC(C)C (stereo not given) [2,6,10,15,19,23-hexamethyltetracosane]
self diffusion coefficient (270.4 K): 5.32e-12 m2/s | self diffusion coefficient (273 K): 6.72e-12 m2/s | self diffusion coefficient (283.3 K): 1.34e-11 m2/s | self diffusion coefficient (283.6 K): 1.32e-11 m2/s | self diffusion coefficient (288.28 K): 1.81e-11 m2/s | self diffusion coefficient (293.13 K): 2.19e-11 m2/s | self diffusion coefficient (293.19 K): 2.26e-11 m2/s | self diffusion coefficient (298 K): 2.79e-11 m2/s | self diffusion coefficient (298.19 K): 2.88e-11 m2/s | self diffusion coefficient (298.44 K): 2.91e-11 m2/s | self diffusion coefficient (303 K): 3.57e-11 m2/s | self diffusion coefficient (303.18 K): 3.69e-11 m2/s | self diffusion coefficient (312.99 K): 5.7e-11 m2/s | self diffusion coefficient (314.3 K): 5.7e-11 m2/s | self diffusion coefficient (322.69 K): 8.15e-11 m2/s | self diffusion coefficient (322.72 K): 8.24e-11 m2/s | self diffusion coefficient (323.16 K): 8.12e-11 m2/s | self diffusion coefficient (325.7 K): 8.83e-11 m2/s | self diffusion coefficient (333.03 K): 1.17e-10 m2/s | self diffusion coefficient (333.49 K): 1.14e-10 m2/s | self diffusion coefficient (334.8 K): 1.18e-10 m2/s | self diffusion coefficient (342.81 K): 1.5e-10 m2/s | self diffusion coefficient (344.9 K): 1.6e-10 m2/s | self diffusion coefficient (348.2 K): 1.74e-10 m2/s | self diffusion coefficient (352.82 K): 1.96e-10 m2/s | self diffusion coefficient (353.15 K): 1.98e-10 m2/s | self diffusion coefficient (362.6 K): 2.44e-10 m2/s | self diffusion coefficient (362.82 K): 2.5e-10 m2/s | self diffusion coefficient (362.88 K): 2.6e-10 m2/s

CCCCC(CC)COC(=O)c1ccccc1C(=O)OCC(CC)CCCC (stereo not given) [bis(2-ethylhexyl) 1,2-benzenedicarboxylate]
self diffusion coefficient (268 K): 1.31e-12 m2/s | self diffusion coefficient (273 K): 2.05e-12 m2/s | self diffusion coefficient (283 K): 4.57e-12 m2/s | self diffusion coefficient (298.1 K): 1.24e-11 m2/s | self diffusion coefficient (303.18 K): 1.71e-11 m2/s | self diffusion coefficient (303.2 K): 1.86e-11 m2/s | self diffusion coefficient (312.89 K): 2.91e-11 m2/s | self diffusion coefficient (313.2 K): 3.05e-11 m2/s | self diffusion coefficient (322.7 K): 4.5e-11 m2/s | self diffusion coefficient (322.84 K): 4.53e-11 m2/s | self diffusion coefficient (322.88 K): 4.53e-11 m2/s | self diffusion coefficient (323.03 K): 4.57e-11 m2/s | self diffusion coefficient (323.05 K): 4.57e-11 m2/s | self diffusion coefficient (323.1 K): 4.73e-11 m2/s | self diffusion coefficient (332.7 K): 6.93e-11 m2/s | self diffusion coefficient (333.16 K): 6.74e-11 m2/s | self diffusion coefficient (333.2 K): 6.78e-11 m2/s | self diffusion coefficient (342.5 K): 9.48e-11 m2/s | self diffusion coefficient (343.65 K): 9.74e-11 m2/s | self diffusion coefficient (343.7 K): 9.79e-11 m2/s | self diffusion coefficient (352.86 K): 1.3e-10 m2/s | self diffusion coefficient (352.88 K): 1.31e-10 m2/s | self diffusion coefficient (362.72 K): 1.69e-10 m2/s | self diffusion coefficient (362.75 K): 1.72e-10 m2/s

C1CCCCC1 [cyclohexane]
self diffusion coefficient (283.47 K): 1.07e-09 m2/s | self diffusion coefficient (283.53 K): 1.09e-09 m2/s | self diffusion coefficient (288.31 K): 1.19e-09 m2/s | self diffusion coefficient (288.32 K): 1.2e-09 m2/s | self diffusion coefficient (298.12 K): 1.46e-09 m2/s | self diffusion coefficient (298.15 K): 1.47e-09 m2/s | self diffusion coefficient (308.02 K): 1.73e-09 m2/s | self diffusion coefficient (308.03 K): 1.76e-09 m2/s | self diffusion coefficient (308.16 K): 1.71e-09 m2/s | self diffusion coefficient (308.17 K): 1.72e-09 m2/s | self diffusion coefficient (317.68 K): 2.03e-09 m2/s | self diffusion coefficient (317.73 K): 2.08e-09 m2/s | self diffusion coefficient (318.22 K): 2.05e-09 m2/s | self diffusion coefficient (318.25 K): 2.05e-09 m2/s | self diffusion coefficient (323.04 K): 2.23e-09 m2/s | self diffusion coefficient (328.13 K): 2.47e-09 m2/s | self diffusion coefficient (328.15 K): 2.47e-09 m2/s | self diffusion coefficient (333.02 K): 2.6e-09 m2/s | self diffusion coefficient (333.05 K): 2.65e-09 m2/s | self diffusion coefficient (342.79 K): 2.97e-09 m2/s | self diffusion coefficient (348.16 K): 3.25e-09 m2/s

C[S+](C)[O-] [dimethyl sulfoxide]
self diffusion coefficient (293.09 K): 6.55e-10 m2/s | self diffusion coefficient (298.26 K): 7.46e-10 m2/s | self diffusion coefficient (298.29 K): 7.45e-10 m2/s | self diffusion coefficient (308.1 K): 9.1e-10 m2/s | self diffusion coefficient (318.03 K): 1.12e-09 m2/s | self diffusion coefficient (328.1 K): 1.34e-09 m2/s | self diffusion coefficient (338.12 K): 1.59e-09 m2/s | self diffusion coefficient (348.17 K): 1.84e-09 m2/s | self diffusion coefficient (363.71 K): 2.29e-09 m2/s

CCCCCCCCCCCC [dodecane]
self diffusion coefficient (264.14 K): 3.95e-10 m2/s | self diffusion coefficient (266.5 K): 4.2e-10 m2/s | self diffusion coefficient (268.03 K): 4.37e-10 m2/s | self diffusion coefficient (278.2 K): 5.59e-10 m2/s | self diffusion coefficient (278.52 K): 5.63e-10 m2/s | self diffusion coefficient (278.56 K): 5.64e-10 m2/s | self diffusion coefficient (278.72 K): 5.66e-10 m2/s | self diffusion coefficient (288.09 K): 6.97e-10 m2/s | self diffusion coefficient (288.49 K): 7.03e-10 m2/s | self diffusion coefficient (288.52 K): 7.03e-10 m2/s | self diffusion coefficient (298.15 K): 8.56e-10 m2/s | self diffusion coefficient (298.2 K): 8.57e-10 m2/s | self diffusion coefficient (298.21 K): 8.57e-10 m2/s | self diffusion coefficient (308.15 K): 1.03e-09 m2/s | self diffusion coefficient (308.16 K): 1.04e-09 m2/s | self diffusion coefficient (318.15 K): 1.22e-09 m2/s | self diffusion coefficient (318.16 K): 1.23e-09 m2/s | self diffusion coefficient (323.17 K): 1.33e-09 m2/s | self diffusion coefficient (328.17 K): 1.43e-09 m2/s | self diffusion coefficient (328.22 K): 1.44e-09 m2/s | self diffusion coefficient (328.25 K): 1.47e-09 m2/s | self diffusion coefficient (333.14 K): 1.54e-09 m2/s | self diffusion coefficient (337.93 K): 1.67e-09 m2/s | self diffusion coefficient (337.97 K): 1.66e-09 m2/s | self diffusion coefficient (337.99 K): 1.67e-09 m2/s | self diffusion coefficient (348.08 K): 1.92e-09 m2/s | self diffusion coefficient (352.75 K): 2.07e-09 m2/s | self diffusion coefficient (352.77 K): 2.04e-09 m2/s | self diffusion coefficient (364.53 K): 2.44e-09 m2/s | self diffusion coefficient (364.54 K): 2.41e-09 m2/s

CCCCCO [pentan-1-ol]
self diffusion coefficient (253.13 K): 5.27e-11 m2/s | self diffusion coefficient (253.19 K): 5.32e-11 m2/s | self diffusion coefficient (258.42 K): 6.61e-11 m2/s | self diffusion coefficient (258.47 K): 6.61e-11 m2/s | self diffusion coefficient (263.25 K): 8.06e-11 m2/s | self diffusion coefficient (263.28 K): 8.11e-11 m2/s | self diffusion coefficient (268.65 K): 1.01e-10 m2/s | self diffusion coefficient (268.66 K): 1.02e-10 m2/s | self diffusion coefficient (278.4 K): 1.51e-10 m2/s | self diffusion coefficient (278.43 K): 1.52e-10 m2/s | self diffusion coefficient (288.31 K): 2.17e-10 m2/s | self diffusion coefficient (288.33 K): 2.17e-10 m2/s | self diffusion coefficient (298.16 K): 3.01e-10 m2/s | self diffusion coefficient (298.17 K): 3e-10 m2/s | self diffusion coefficient (298.19 K): 2.99e-10 m2/s | self diffusion coefficient (298.21 K): 3.02e-10 m2/s | self diffusion coefficient (298.27 K): 3.02e-10 m2/s | self diffusion coefficient (308.09 K): 4.13e-10 m2/s | self diffusion coefficient (308.11 K): 4.14e-10 m2/s | self diffusion coefficient (318.08 K): 5.54e-10 m2/s | self diffusion coefficient (318.09 K): 5.56e-10 m2/s | self diffusion coefficient (323.1 K): 6.39e-10 m2/s | self diffusion coefficient (323.15 K): 6.43e-10 m2/s | self diffusion coefficient (327.86 K): 7.3e-10 m2/s and 7.36e-10 m2/s | self diffusion coefficient (337.71 K): 9.56e-10 m2/s | self diffusion coefficient (337.74 K): 9.49e-10 m2/s | self diffusion coefficient (347.21 K): 1.22e-09 m2/s | self diffusion coefficient (347.25 K): 1.22e-09 m2/s | self diffusion coefficient (352.35 K): 1.4e-09 m2/s | self diffusion coefficient (352.36 K): 1.4e-09 m2/s | self diffusion coefficient (352.55 K): 1.41e-09 m2/s | self diffusion coefficient (364.52 K): 1.84e-09 m2/s | self diffusion coefficient (364.59 K): 1.83e-09 m2/s | self diffusion coefficient (364.73 K): 1.83e-09 m2/s

Cc1ccccc1 [toluene]
self diffusion coefficient (239.09 K): 7.12e-10 m2/s | self diffusion coefficient (240.94 K): 7.53e-10 m2/s | self diffusion coefficient (248.57 K): 8.98e-10 m2/s | self diffusion coefficient (251.71 K): 9.77e-10 m2/s | self diffusion coefficient (253.27 K): 1.01e-09 m2/s | self diffusion coefficient (253.28 K): 1.01e-09 m2/s | self diffusion coefficient (258.16 K): 1.13e-09 m2/s | self diffusion coefficient (258.23 K): 1.13e-09 m2/s | self diffusion coefficient (263.51 K): 1.24e-09 m2/s | self diffusion coefficient (268.32 K): 1.38e-09 m2/s | self diffusion coefficient (273.43 K): 1.5e-09 m2/s | self diffusion coefficient (273.54 K): 1.52e-09 m2/s | self diffusion coefficient (278.07 K): 1.67e-09 m2/s | self diffusion coefficient (278.15 K): 1.67e-09 m2/s | self diffusion coefficient (288.05 K): 1.98e-09 m2/s | self diffusion coefficient (293.08 K): 2.13e-09 m2/s | self diffusion coefficient (298 K): 2.3e-09 m2/s | self diffusion coefficient (298.18 K): 2.27e-09 m2/s | self diffusion coefficient (298.2 K): 2.32e-09 m2/s | self diffusion coefficient (298.21 K): 2.28e-09 m2/s and 2.3e-09 m2/s | self diffusion coefficient (308.07 K): 2.71e-09 m2/s | self diffusion coefficient (322.69 K): 3.15e-09 m2/s | self diffusion coefficient (323.16 K): 3.32e-09 m2/s | self diffusion coefficient (323.18 K): 3.3e-09 m2/s | self diffusion coefficient (332.93 K): 3.56e-09 m2/s | self diffusion coefficient (333.16 K): 3.56e-09 m2/s | self diffusion coefficient (343.45 K): 4.09e-09 m2/s
